Results from article PMC7539012, “Hyperphosphorylated tau aggregation and cytotoxicity modulators screen identified prescription drugs linked to Alzheimer's disease and cognitive functions” (Scientific Reports, 2020).
Structures can show the parent of a compound that is named as a salt.

What was measured:
[1] = parameters: method as in PMID 21071476; conditions: cited from earlier work
[2] = test system: 3xTg mice; conditions: cited from earlier work
[3] = target: T1, p-tau (Homo sapiens, UniProt P10636); assay: p-tau aggregation assay, dose response (ThS fluorescence, inducer-free); type: biochemical; conditions: for EC50: 6 µM p-tau, ThS fluorescence
T1 construct: made in house; host or cells: E. coli (PIMAX system)
Method: Aggregation of 6-µM p-tau under the influence of 30 µM of each of the library compounds or a DMSO vehicle control was monitored in 384-well plates every 10 min for ThS fluorescence changes over 16 h. To assess the quality of the high-throughput p-tau aggregation reactions, we used the T0 and T16hr ThS fluorescence units of no-compound control reactions to calculate the Z′-factor and coefficient of variation (CV), two commonly used criteria for robustness of high-throughput screens (HTS)[62]. A Z′-factor greater than 0.5 and CV smaller than 10% indicate robustness. […] To identify compounds with significant p-tau aggregation modulation, the net change of ThS fluorescence was calculated from all reactions (see Supplemental Table 1 for complete listing).
Aggregation of 6 µM of p-tau was done in the presence of the indicated concentrations of either compound. […] P-tau aggregation reactions with the C291S C322S (C/S) mutant p-tau were done in the presence of the indicated amounts of either compound. Shown are net changes of ThS over 16 h.
Given the tremendous socioeconomical burdens of AD, measures that prevent or delay the onset of the devastating neurodegeneration of AD will be highly impactful. If hyperphosphorylated tau-inflicted neuronal damages are an underpinning for AD and other tauopathies, enhancers of p-tau aggregation (PTAEs) may be risk factors for neurodegeneration. […] Prednicarbate is a synthetic corticosteroid for dermatological use, and carmofur (1-hexylcarbamoyl-5-fluorouracil) is an anti-neoplastic pyrimidine analogue. […] BZDs are among the most widely prescribed medication, in particular to the elderly, for depression and insomnia[70],[71]. We hypothesized that certain BZDs acted as a PTAE to potentiate p-tau aggregation and cytotoxicity. […] We therefore randomly picked nine prescription BZDs for p-tau aggregation assessment (Fig. 6; see Supplemental Fig. 5 for chemical structures). To 6-µM p-tau aggregation reactions, increasing doses of each of these BZDs were added.
Prednicarbate, a synthetic steroid, served as a PTAE control (yellow bars).
The aggregation assays over the course of this project have been done with multi-plate readers from different sources.
A common mix of 6 µM p-tau, 20 mM Tris pH 7.4, 1 mM DTT, and 20 µM ThS was assembled and dispensed to 384-well low-volume plates (10 µl per well) using BioTek EL406 Washer, followed by the addition of 150 nl of the Prestwick Library compounds (final concentration of 30 µM per well) or DMSO in a Beckman Coulter Biomek FX^P workstation. Each plate was covered with an Optical Adhesive Film and incubated at 37 °C for about 10 min. ThS fluorescence was measured every 10 min at 440/490 nm for 16 h by Biotek Synergy Neo Plate Reader. […] The real-time kinetics of ThS signals were collected using Gen5 software.

[4] = test system: C291S C322S (C/S) and C291A C322A (C/A) mutant p-tau; assay: aggregation of C/S or C/A mutant p-tau (ThS net change); type: biochemical; conditions: increasing doses of compound
Method: Figure 3 R-(−)-apomorphine and raloxifene are p-tau aggregation inhibitors (PTAIs) that act independently of the redox state of p-tau. (a) and (b) P-tau aggregation inhibition dose response curves of R-(−)-apomorphine and raloxifene. Aggregation of 6 µM of p-tau was done in the presence of the indicated concentrations of either compound. (c) Both R-(−)-apomorphine and raloxifene act independently of the two cysteine residues of p-tau. P-tau aggregation reactions with the C291S C322S (C/S) mutant p-tau were done in the presence of the indicated amounts of either compound. Shown are net changes of ThS over 16 h.
Many “hits” from prior tau-based HTS were non-selective redox modulators, due most likely to the susceptibility of unmodified tau fibrils to the oxidation of two cysteine residues of tau, C291 and C322. Because p-tau aggregation was not affected by changing the two cysteine residues to alanine or serine, we suspected that R-(−)-apomorphine and raloxifene would act independently of these two cysteine. […] By itself, the C/S p-tau gained 130 units of ThS fluorescence over the course of the aggregation reaction (blue column). With increasing doses of either compound, the net gain of ThS fluorescence decreased progressively. […]

[5] = test system: HEK293T cells; assay: intracellular fibril buildup and cell death after p-tau, ThS/PI double staining; type: cell-based; conditions: 15 µM compound added 24 h after p-tau
Method: Cells were harvested for ThS/PI staining after additional 24 or 48 h. ThS staining helped visualize intracellular fibrils. In this experiment, we used HEK293T cells to avoid potential interference from the endogenous tau. […] To gain a quantitative assessment, the numbers of the four possible combinations of ThS/PI staining were tallied.
(a) Experimental design. […] These images were from T24hr time point in panel (a) with 0.5 µM p-tau treatment. (c) Quantification of ThS and PI stainability among cells. Cells were categorized based on one of the four ThS/PI double-staining patterns. The total number of cells captured microscopically under each treatment was used as the denominator for the calculation of the proportion of each staining pattern, and expressed in this stacked column chart.
(§1) Cell viability assays were tested according to reference[60] with modifications. PTAIs were typically added to cells along with (Fig. 4) or after p-tau was added to cells (Fig. 5). For PTAEs, 10 × concentration of p-tau and the test compounds were assembled for pre-aggregation (without heparin or ThS) for 48 h before adding 10 µl to 100 µl of cells in 96-well plates. Twenty-four or 48 h after the addition of protein/compound, cells were trypsinized and transferred to microcentrifuge tubes, and pelleted at 1000 × g for 5 min at room temperature for FDA, PI, annexin V, and ThS staining. For PI/ThS double staining, cell pellets were resuspended in 20 mM Tris, pH7.4 buffer and incubated with 100 µM ThS for 5 min at room temperature. 5-µg/ml propidium iodide was then added to cell suspension for observation under a microscope.

[6] = test system: SH-SY5Y cells; assay: cells; conditions: Homo sapiens, SH-SY5Y, read-out: EC50, concentration of compound to reduce p-tau cytotoxicity by 50%, SH-SY5Y, 0.8 µM p-tau
Method: (see below). […] PI is excluded by living cells, but diffuses into dead cells where it binds nucleic acid and emits fluorescence. FDA/PI differential staining thus provides a quantitative assessment of cellular viability. The blue curves in Fig. 4a,b depict the cellular viability after treatment with 0–0.8 µM of p-tau.
P-tau (without pre-aggregation) and compounds were added together to cells. Cell viability was quantified by FDA and PI differential staining 24 h later. […] Cellular viability was characterized as above and plotted against the compound concentration. Trend lines in panels (a)–(c) were obtained with the dose response curve fitting function of the software Origin (Origin Pro 8, OriginLab Corporation, Northampton, MA, USA). (d) Representative images of apoptotic cells after treatment of p-tau. SH-SY5Y cells were treated with 0.6 µM of p-tau for 12 h before harvesting for annexin V and PI staining. […] The percentage of apoptotic SH-SY5Y cells was quantified by annexin V and PI double staining of cells receiving 12 h of the indicated treatment under each column in the graph. Error bars are standard deviations; n = 3.
SH-SY5Y cells were treated with 0–0.6 µM of p-tau in conjunction with varying doses of nitrazepam, prazepam or devazepide. […] The red dotted lines indicate 50% viability. Curve fitting was done with the dose–response fitting function of the software Origin (version 8, OriginLab Inc.). The number in parentheses represents the concentration (in µM) of the indicated compound.
as §1
Supplemental Figure 2. […] SH-SY5Y cells were treated with the indicated concentrations p-tau and compounds (in µM) for 20 hours before FDA/PI differential staining and microscopic quantification. […] 0.2 or 0.4 µM of p-tau and 30 µM of each compound were pre-incubated in aggregation reactions for 24 hours before the 20-hr cell treatment and cytotoxicity quantification. FDA and PI dual staining was performed to measure cellular viability. SH-SY5Y cells Compounds in panel (a) were added to cells along with p-tau without pre-incubation.

[7] = test system: T2, 1N4R p-tau; assay: p-tau aggregation modulator screen of 1280-compound library (ThS fluorescence net change over 16 h); type: biochemical; parameters: key to PTAI>3SD: *: PTAI>3SD
T2 construct: made in house; host or cells: E. coli (PIMAX system)

[8] = parameters: method as in PMID 29401722; conditions: cited from earlier work
[9] = test system: women; conditions: cited from earlier work

T1 sequence (P10636 1-412 isoform P10636-7): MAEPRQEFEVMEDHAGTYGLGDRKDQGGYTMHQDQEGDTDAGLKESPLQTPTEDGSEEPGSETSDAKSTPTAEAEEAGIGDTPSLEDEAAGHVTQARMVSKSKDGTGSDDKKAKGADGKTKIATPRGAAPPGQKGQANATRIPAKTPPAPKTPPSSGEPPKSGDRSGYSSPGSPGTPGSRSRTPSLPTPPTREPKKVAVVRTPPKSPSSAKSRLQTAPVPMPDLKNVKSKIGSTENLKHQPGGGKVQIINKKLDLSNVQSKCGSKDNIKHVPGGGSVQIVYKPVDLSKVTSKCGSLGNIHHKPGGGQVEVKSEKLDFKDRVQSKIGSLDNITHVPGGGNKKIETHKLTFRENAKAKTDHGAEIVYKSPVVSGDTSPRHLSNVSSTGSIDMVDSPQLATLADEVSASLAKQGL

Row | SMILES | blood brain barrier passage [1] | memory in 3xTg mice [2] | EC50 [3] | aggregation of C/A or C/S mutant p-tau [4] | live cells with cytoplasmic ThS fluorescence ([5]; 48-h samples) | PI (+) ThS (+) cells ([5]; harvested after additional 24 h) | PI (+) ThS (+) cells ([5]; harvested after additional 48 h) | EC50 [6] | PTAI>3SD ([7]; flag: p-tau aggregation inhibitor, ThS net change more than 3 SD from mean) | ThS net change ([7]; library screen, ThS fluorescence net change over 16 h with p-tau) | bioavailability [8] | effect on p-tau aggregation ([3]; 50 µM compound) | risk of mild cognitive impairment (MCI) ([9]; 3-year trial, 5386 participants, 120 mg daily) | benefit for AD treatment ([9]; 12-month trial, 42 women with late-onset AD of mild to moderate severity)
1 | CN1CCc2cccc3c2[C@H]1Cc1ccc(O)c(O)c1-3 [Apomorphine, R-(−)-apomorphine hydrochloride] | can pass the blood brain barrier | memory improvement | 18.1 µM | effectively inhibited | 26% | 61% | 44% | 2.9 µM |  |  |  |  |  | 
2 | COC1=C(OC)C(=O)C(CCCCCCCCCCO)=C(C)C1=O [Idebenone, idebenone] |  |  | 10.5 µM |  |  |  |  |  | * | -1 | very low bioavailability |  |  | 
3 | O=C(c1ccc(OCCN2CCCCC2)cc1)c1c(-c2ccc(O)cc2)sc2cc(O)ccc12 [Raloxifene, raloxifene hydrochloride] |  |  | 31.2 µM | effectively inhibited |  |  |  | 4.8 µM |  |  |  | completely blocked p-tau aggregation | reduced risks of mild cognitive impairment (MCI) | no significant benefits
